In paper PMC7822874, “Chemoprotective antimalarials identified through quantitative high-throughput screening of Plasmodium blood and liver stage parasites” (Scientific Reports, 2021) one finds AC50 data, which are given here for 53 compounds.

The test system of this test is Plasmodium falciparum Dd2 asexual blood stage parasites. Kind of test: microbe, parasite or virus in culture. On the set-up: species or system Plasmodium falciparum Dd2 in human erythrocytes; single determination (one 11-point concentration-response curve). Conditions: Plasmodium falciparum, DD2, Erythrocyte, 72 h; read-out: AC50.

Turning to `C=CCOC(=O)Nc1nc2c(s1)C[C@@H]1[C@](C)(CO)[C@H](O)CC[C@@]1(C)[C@@H]2CC(=O)NC1CCCCC1` [NCGC00395650-01], the AC50 was determined as 3.76 µM.

Take `O=C(c1ccccc1OCC1CCCN(Cc2ccncc2F)C1)N1CCCC1` (centres unmarked) [NCGC00427122-01]: the AC50 turned out to be 10.6 µM.

For the compound `O=C1NCc2ccccc2CC12CCCCN2CC1CC=CCC1` (centres unmarked) [NCGC00377392-01], the AC50 was 2.34 µM.

Turning to `COc1ccccc1NCc1cc(=O)oc2c(C)c(O)ccc12` [MLS001175266-01], the AC50 was found to be 5.96 µM.

`O=C(CNC1CC1)Nc1cc(C(F)(F)F)ccc1Cl` [MLS001010951-01]: the AC50 was determined as 15 µM.

Take `COc1ccc(Nc2cc(C)nc3nc(C)nn23)cc1Cl` [MLS000116613-01]: the AC50 amounted to 16.8 µM.

With `Cn1cc(C(=O)NCCN2CCN(c3cccc(Cl)c3)CC2)c2c3ccccc3n(C)c2c1=O` [MLS000086993-01], the half-maximal activity concentration (AC50) was determined as 4.73 µM.

In the case of `CCCn1c(C)cnc1CC1CCCN([S+](=O)([O-])c2cc(OC)ccc2OC)C1` (centres unmarked) [NCGC00469684-01], the AC50 is 10.6 µM.

Turning to `COc1ccccc1-c1n[nH]c2ncc(-c3cnn(C)c3)nc12` [NCGC00419074-01], the concentration at half-maximal activity (AC50) amounted to 17.2 µM.

For `Cc1ccc(-c2nc(NC(=O)c3cc(C(C)(C)C)nn3C)sc2C)cc1Cl` [MLS000860650-01], the concentration at half-maximal activity (AC50) came to 10.6 µM.

With `CCOC(=O)c1c(C)oc2nc(C)nc(Nc3ccc(CC)cc3)c12` [NCGC00126813-01], the AC50 came out at 7.5 µM.

With `Cc1ccc(NC(=O)Cn2c(=O)n(-c3ccc(C)cc3)c(=O)c3ccc(C(=O)NCc4ccccc4Cl)cc32)cc1` [NCGC00108700-01], the AC50 was determined as 5.31 µM.

For the compound `Cc1ccc(N(C)C2=NC(=O)CS2)cc1Cl` [MLS001164579-01], the concentration at half-maximal activity (AC50) was 9.44 µM.

For the compound `CC(C)c1ccc(CC(=O)N2CCCc3ncc(C(=O)NCCc4c[nH]c5ccccc45)cc32)cc1` [NCGC00420032-01], the concentration at half-maximal activity (AC50) worked out at 15 µM.

Turning to `COc1ccc(NS(=O)(=O)c2cc(NC(=O)/C=C/c3cc(OC)c(OC)c(OC)c3)ccc2N2CCCCC2)cc1` [MLS000394995-01], the half-maximal activity concentration (AC50) stood at 6.68 µM.

On to `CCOC(=O)c1ccc2c(c1)N(C(CC)C(=O)Nc1ccccc1OC)C(=O)c1ccccc1S2` (centres unmarked) [NCGC00132065-01], for which the AC50 was 9.44 µM.

Consider `COc1ccc(CNC[C@H]2O[C@H](Cc3cc(-c4ccccc4)on3)CC[C@@H]2O)cc1` [NCGC00401044-01], for which the half-maximal activity concentration (AC50) amounted to 3.85 µM.

As for `COc1ccc(CN2C(=O)C(C)N(C(=O)c3c(F)cccc3F)c3ccccc32)cc1` (centres unmarked) [MLS001166304-01], the half-maximal activity concentration (AC50) is 7.5 µM.

Regarding `CCCCCCC(O)(c1ccc(OC)cc1)C(CN1CCOCC1)c1ccccc1` (centres unmarked) [MLS001198921-01], the concentration at half-maximal activity (AC50) stood at 4.22 µM.

On to `Cc1nc(-c2cccc(Cl)c2)n(CC(=O)Nc2ccc(C(F)(F)F)cc2)c(=O)c1CCO` [NCGC00471081-01], for which the AC50 came to 13.3 µM.

On to `Cc1ccc2oc(=O)n(CCOc3ccccc3C)c2c1` [MLS000708194-01], for which the AC50 was 4.73 µM.

For the compound `O=C1CC(c2ccccc2)N(C(=O)CNC(=O)c2ccc3[nH]ccc3c2)CCCCCN1` (centres unmarked) [NCGC00465493-01], the AC50 worked out at 15 µM.

For `CCOc1ccc(CN(CCc2ccc3c(c2)OCO3)Cc2cc(OC)ccc2O)cc1` [NCGC00101752-01], the AC50 stood at 0.668 µM.

Consider `Cc1ccc([S+](=O)([O-])N2CCC3(CCN(Cc4cccs4)c4ccccc4O3)CC2)cc1` [NCGC00478057-01], for which the half-maximal activity concentration (AC50) was 18.8 µM.

As to `CCN1CCN(Cc2cc(Br)cc(Br)c2O)CC1` [MLS000530316-01], the AC50 turned out to be 7.5 µM.

`CCOC(=O)c1c(CN(C)C)oc2cc(CN(C)C)c(O)c(CSc3ccccc3)c12` [MLS000038262-01]: the AC50 came out at 0.596 µM.

For the compound `CCOc1ccc(C2C(C(=O)Nc3ccccc3)=C(C)N=c3sc(=Cc4cccc(OCC(=O)O)c4)c(=O)n32)cc1` (centres unmarked) [MLS000705052-01], the AC50 is 5.31 µM.

With `COc1ccccc1NC(=O)CN1CCN(C2c3ccccc3-c3ccccc32)CC1` [MLS000047428-01], the AC50 stood at 15 µM.

Regarding `CCc1cccc(NC(c2nnc(-c3ccccc3)o2)c2ccc(F)cc2Cl)c1` (centres unmarked) [NCGC00129460-01], the AC50 is 6.68 µM.

Consider `CCN1CCN(c2cc(C)c3cc(NC(=O)/C=C/c4cccc(OC)c4OC)ccc3n2)CC1` [NCGC00103854-01], for which the AC50 was 5.96 µM.

For the compound `Fc1ccc(OC2CN(CC3CCCCC3)C2)cc1F` [NCGC00476687-01], the AC50 is 17.2 µM.

Consider `C#C[C@H]1C[N@@]2CC[C@H]1C[C@@H]2CNCc1ccc(F)c(F)c1` [NCGC00399053-01], for which the AC50 was determined as 13.7 µM.

As to `CCOC(=O)c1nnn(-c2nonc2N)c1-c1ccc(Cl)cc1` [MLS000727794-01], the concentration at half-maximal activity (AC50) came out at 5.31 µM.

For the compound `CC(C)(C)n1[nH]c2c3c(ccc2c1=O)C(=O)c1ccccc1C3=O` [MLS000530323-01], the concentration at half-maximal activity (AC50) came to 4.73 µM.

`Cc1ccccc1NC(=O)c1c(NC(=O)c2ccco2)sc2c1CCC(C(C)(C)C)C2` (centres unmarked) [NCGC00099842-01]: the AC50 was found to be 13.3 µM.

`Cc1nnc2c(N3CCN(c4ccccc4)CC3)nc3ccc(C(=O)c4ccccc4)cc3n12` [NCGC00107547-01]: the AC50 came to 0.841 µM.

As for `Cc1ccccc1CN1C(=O)CN=C(c2ccccc2)c2cc(Cl)ccc21` [NCGC00140581-01], the AC50 turned out to be 16.8 µM.

Turning to `Cc1cc(O)c(-c2ccnc3cc(-c4ccccc4)nn23)cc1Cl` [NCGC00164840-01], the AC50 turned out to be 1.88 µM.

For the compound `CC(C)N1CCN(Cc2ccc(-c3ccccc3)cc2)CC1CCO` (centres unmarked) [MLS001000401-01], the half-maximal activity concentration (AC50) is 6.68 µM.

For `COc1cc(C(=O)NC2CCN(c3cc(-c4ccccc4)n[nH]3)CC2)cc(OC)c1OC` [NCGC00436906-01], the half-maximal activity concentration (AC50) turned out to be 5.96 µM.

As to `COc1ccc(CCNC(=O)CCc2c(C)nc3c(c(C)nn3-c3ccc(C)c(C)c3)c2C)cc1OC` [NCGC00110173-01], the half-maximal activity concentration (AC50) was 0.668 µM.

For `Cc1ccc(-c2nnc(Nc3ccc(OCC(N)=O)cc3)c3ccccc23)cc1[S+](=O)([O-])NCC1CCCO1` (centres unmarked) [NCGC00100178-01], the concentration at half-maximal activity (AC50) came out at 4.73 µM.

For the compound `COc1ccc(-c2cc(C(=O)Nc3cc(OC)cc(C(=O)Nc4cccc(C(F)(F)F)c4)c3)[nH]n2)cc1` [MLS003105955-01], the AC50 is 5.31 µM.

Take `O=C(NNc1nc(-c2ccc(Br)cc2)cs1)c1ccco1` [MLS000699189-01]: the AC50 stood at 5.31 µM.

Take `CSc1nnc(-c2cc3ccccc3cc2O)n1C` [MLS000035069-01]: the half-maximal activity concentration (AC50) came out at 7.5 µM.

On to `CCCCN(CC)CCNC(S)=Nc1ccc2nc(N3CCN(C)CC3)cc(C)c2c1` [MLS001197626-01], for which the half-maximal activity concentration (AC50) was determined as 5.96 µM.

Regarding `COc1ccc(-c2nc3c(c(SCc4ccc(Br)cc4)n2)Cc2c(CO)cnc(C)c2O3)cc1` [NCGC00122580-01], the concentration at half-maximal activity (AC50) amounted to 0.0668 µM.

Take `COc1cc(=O)n2c(c1C(=O)Nc1ccc(N(C)C)cc1)CCCC2` [NCGC00435410-01]: the half-maximal activity concentration (AC50) worked out at 10.6 µM.

As to `CCn1cc(CN2CCCC23CCN(c2cc(C)nc4ccccc24)CC3)c(C)n1` [NCGC00442249-01], the AC50 was 4.22 µM.

Turning to `CCc1c(C)c2ccc(O)c(CN3CCN(c4ccccc4)CC3)c2oc1=O` [NCGC00119657-01], the AC50 came to 2.37 µM.

As to `O=C(Nc1ccncc1)Nc1ccc(Cl)cc1` [MLS001224591-01], the AC50 came to 10.6 µM.

`CCC(C)NC(=O)c1ccccc1NC(=O)C1COc2ccccc2O1` (centres unmarked) [MLS000708698-01]: the AC50 was determined as 10.6 µM.

Turning to `CCOc1cccc(C2c3[nH]c4ccccc4c3CCN2C(=O)CSCc2ccc(F)cc2)c1` (centres unmarked) [NCGC00134633-01], the concentration at half-maximal activity (AC50) came out at 15 µM.
